Test results from patent US6562861B1 (priority 1997, dated 2003).
Structures can show the parent of a compound that is named as a salt.

Columns and labels:
[1] = target: neuraminidase from the H1N9 strain of influenza (Influenza A virus, UniProt P03472); assay: biochemical; conditions: neuraminidase enzyme inhibition data (IC50 values) Flu A
Flu B neuraminidase = Flu B neuraminidase (Influenza B virus, UniProt P03474); assay: biochemical; conditions: neuraminidase enzyme inhibition data (IC50 values) Flu B
Chain of Flu B neuraminidase (P03474 whole entry): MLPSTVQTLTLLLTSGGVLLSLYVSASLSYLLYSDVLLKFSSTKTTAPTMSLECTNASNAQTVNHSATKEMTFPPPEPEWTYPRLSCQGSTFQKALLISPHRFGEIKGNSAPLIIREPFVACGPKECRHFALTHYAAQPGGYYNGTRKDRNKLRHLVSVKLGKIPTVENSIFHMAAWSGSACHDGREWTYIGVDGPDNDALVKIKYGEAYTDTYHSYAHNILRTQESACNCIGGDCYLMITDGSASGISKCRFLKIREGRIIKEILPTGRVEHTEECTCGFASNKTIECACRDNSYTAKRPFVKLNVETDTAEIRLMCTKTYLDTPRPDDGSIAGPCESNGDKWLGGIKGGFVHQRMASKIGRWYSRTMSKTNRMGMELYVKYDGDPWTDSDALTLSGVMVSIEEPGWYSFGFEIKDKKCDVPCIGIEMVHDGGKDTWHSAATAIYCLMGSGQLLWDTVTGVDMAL

Chain of neuraminidase from the H1N9 strain of influenza (P03472 83-470 limits assumed): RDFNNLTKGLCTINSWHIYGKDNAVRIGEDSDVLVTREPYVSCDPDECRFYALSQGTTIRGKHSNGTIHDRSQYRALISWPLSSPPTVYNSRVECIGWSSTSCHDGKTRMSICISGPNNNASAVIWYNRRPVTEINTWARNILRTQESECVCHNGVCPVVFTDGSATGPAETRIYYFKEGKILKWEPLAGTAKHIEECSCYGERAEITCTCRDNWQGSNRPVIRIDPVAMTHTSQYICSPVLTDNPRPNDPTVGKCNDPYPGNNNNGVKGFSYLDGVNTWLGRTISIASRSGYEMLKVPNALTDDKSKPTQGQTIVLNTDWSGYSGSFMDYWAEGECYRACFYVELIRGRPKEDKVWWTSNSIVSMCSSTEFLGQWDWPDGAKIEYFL

| SMILES | IC50 [1] | IC50 (Flu B neuraminidase) |
| --- | --- | --- |
| CCC(CC)C(NC(C)=O)C1CC(C(=O)O)CC1O (single isomer, unassigned) [Compound 65, (±) t-3-(1′-Acetylamino-2′-ethyl)butyl-t-4-hydroxycyclopentan-r-1-carboxylic Acid] | 1000 to 100000 nM | 1000 to 100000 nM |
| CCC(CC)C(NC(C)=O)C1CC(C(=O)O)CC1N (single isomer, unassigned) [Compound 86, (±) t-3-[(1′-Acetylamino-2′-ethyl)butyl]-c-4-aminocyclopentan-r-1-carboxylic Acid] | 1000 to 100000 nM | 1000 to 100000 nM |
| CCC(CC)C(NC(C)=O)C1C(N)CC(C(=O)O)C1O (single isomer, unassigned) [Compound 162, (±)-t-3-(1′-Acetylamino-2′-ethyl)butyl-c-4-amino-t-2-hydroxycyclopentan-r-1-carboxylic Acid] | < 1000 nM | < 1000 nM |
| CCCC(CCC)C(NC(C)=O)C1C(N)CC(C(=O)O)C1O (single isomer, unassigned) [Compound 163, (±)-t-3-(1′-Acetylamino-2′-propyl)pentyl-c-4-amino-t-2-hydroxycyclopentan-r-1-carboxylic Acid] | < 1000 nM | < 1000 nM |
| CCCCC(NC(C)=O)C1C(N)CC(C(=O)O)C1O (single isomer, unassigned) [Compound 165] | 1000 to 100000 nM | 1000 to 100000 nM |
| CCC(C)C(NC(C)=O)C1C(N)CC(C(=O)O)C1O (single isomer, unassigned) [Compound 166, (±)-t-3-(1′-Acetylamino-2′-methyl)butyl-c-4-amino-t-2-hydroxycyclopentan-r-1-carboxylic Acid] | < 1000 nM | 1000 to 100000 nM |
| CCC(CC)C(NC(C)=O)C1C(NC(=N)N)CC(C(=O)O)C1O (single isomer, unassigned) [Compound 179, (±)-t-3-(1′-Acetylamino-2′-ethyl)butyl-c-4-[(amino-imino)methyl]amino-t-2-hydroxycyclopentan-r-1-carboxylic Acid] | < 1000 nM | – |
| CCC(CC)CC(NC(C)=O)C1C(NC(=N)N)CC(C(=O)O)C1O (single isomer, unassigned) [Compound 180, (±)-t-3-(1′-Acetylamino-3′-ethyl)pentyl-c-4-[(amino-imino)methyl]amino-t-2-hydroxycyclopentan-r-1-carboxylic Acid] | < 1000 nM | < 1000 nM |
| CCCCC(NC(C)=O)C1C(NC(=N)N)CC(C(=O)O)C1O (single isomer, unassigned) [Compound 181] | < 1000 nM | < 1000 nM |
| CCC(CC)C(NC(C)=O)C1CC(C(=O)O)CC1N (single isomer, unassigned) [Compound 200, (±)-t-3-(1′-Acetylamino-2′-ethyl)butyl-c-4-aminocyclopentan-1-carboxylic Acid] | < 1000 nM | < 1000 nM |
| CCC(CC)C(NC(C)=O)C1CC(C(=O)O)CC1NC(=N)N (single isomer, unassigned) [Compound 211, (±)-t-3-(1′-Acetylamino-2′-ethyl)butyl-c-4-[(amino-imino)methyl]-aminocyclopentan-r-1-carboxylic Acid] | < 1000 nM | – |
| CCC(CC)C(NC(C)=O)[C@@H]1[C@H](O)[C@@H](C(=O)O)C[C@H]1N (stereo partly drawn) [Compound 160, (1S,2S,3R,4R,1′S)-(−)-3-(1′-Acetylamino-2′-ethyl)butyl-4-amino-2-hydroxycyclopentan-1-carboxylic Acid] | < 1000 nM | < 1000 nM |
| CCC(CC)C(NC(C)=O)[C@@H]1[C@H](O)[C@@H](C(=O)O)C[C@H]1NC(=N)N (stereo partly drawn) [Compound 178, (1S,2S,3R,4R,1′S)-(−)-3-(1′-Acetylamino-2′-ethyl)butyl-4-[(aminoimino)methyl]amino-2-hydroxycyclopentan-1-carboxylic Acid] | < 1000 nM | – |
| CCC(CC)C(NC(C)=O)[C@@H]1[C@H](O)[C@@H](C(=O)O)C[C@H]1NC(=N)NC (stereo partly drawn) [Compound 182, (1S,2S,3R,4R,1′S)-(−)-3-(1′-Acetylamino-2′-ethyl)butyl-4-[(N-methylamino-imino)methyl]amino-2-hydroxycyclopentan-1-carboxylic Acid] | < 1000 nM | < 1000 nM |
| CCCC(CCC)C(NC(C)=O)[C@@H]1[C@H](O)[C@@H](C(=O)O)C[C@H]1NC(=N)N (stereo partly drawn) [Compound 183, (1S,2S,3R,4R,1′S)-(−)-3-(1′-Acetylamino-2′-propyl)pentyl-4-[(amino-imino)methyl]amino-2-hydroxycyclopentan-1-carboxylic Acid] | < 1000 nM | < 1000 nM |
| CCC(CC)C(NC(C)=O)[C@@H]1C[C@@H](C(=O)O)C[C@H]1N (stereo partly drawn) [Compound 199, (1R,3R,4R,1′S)-(−)-3-(1′-Acetylamino-2′-ethyl)butyl-4-aminocyclopentan-1-carboxylic Acid] | < 1000 nM | < 1000 nM |
| CCC(CC)C(NC(C)=O)[C@@H]1C[C@@H](C(=O)O)C[C@H]1NC(=N)N (stereo partly drawn) [Compound 209, (1R,3R,4R,1′S)-(−)-3-(1′-Acetylamino-2′-ethyl)butyl-4-(aminoimino)methyl-aminocyclopentan-1-carboxylic Acid] | < 1000 nM | – |
| CCCC(CCC)C(NC(C)=O)[C@@H]1C[C@@H](C(=O)O)C[C@H]1NC(=N)N (stereo partly drawn) [Compound 210, (1R,3R,4R,1′S)-(−)-3-(1′-Acetylamino-2′-propyl)pentyl-4-[(amino-imino)methyl]aminocyclopentan-1-carboxylic Acid] | < 1000 nM | < 1000 nM |
| CCC(CC)C(NC(C)=O)[C@@H]1C[C@@H](C(=O)O)C[C@H]1NC(=N)NC (stereo partly drawn) [Compound 212, (1R,3R,4R,1′S)-(−)-3-(1′-Acetylamino-2′-ethyl)butyl-4-[(N-methylamino-imino)methyl]aminoclopentan-1-carboxylic Acid] | < 1000 nM | < 1000 nM |
| CCC(CC)C(NC(C)=O)[C@@H]1C=C(C(=O)O)C[C@H]1NC(=N)N (stereo partly drawn) [Compound 219, (3R,4R,1′S)-(−)-3-(1′-Acetylamino-2′-ethyl)butyl-4-[(amino-imino)methyl]amino-cyclopent-1-en-1-carboxylic Acid Hydrochloride] | < 1000 nM | < 1000 nM |
